Measurements reported in patent US20170127673A1, “COMPOSITIONS AND METHODS OF USE OF BETA-HYDROXY-BETA-METHYLBUTYRATE (HMB) AS AN ANIMAL FEED ADDITIVE” (Metabolic Technologies, Inc., priority 2015, published 2017).
Marks after values point to notes of the source that are not given here.

Assays:
[1] = test system: Salmonella enterica subsp. enterica Serovar Enteritidis (ATCC 13076); assay: Salmonella enumeration on HMB-coated, inoculated pet food kibbles (Studies 1-3); assay type: cell-based
[2] = test system: Salmonella enterica subsp. enterica Serovar Enteritidis (ATCC 13076); assay: Overnight enrichment of subsamples to recover damaged Salmonella (presence/absence); assay type: cell-based; conditions: for Salmonella growth in enriched samples: Study 1, 0.9 and 1.5%
Experimental: Enriched samples were then spread plated to XLD, incubated at 37° C. for 24 h, and growth of black colonies typical for Salmonella were noted (presence/absence result, not quantitative).
From the coated and inoculated samples, 25 g subsamples were collected after the designated number of storage days. The 25 g subsample was mixed with 225 ml of buffered peptone water (BPW; Becton, Dickinson and Company, Franklin Lakes, N.J.) and stomached for 15 seconds to homogenize. The homogenate was serially diluted using BPW and spread plated onto Xylose Lysine Desoxycholate agar (XLD; Becton, Dickinson and Company, Franklin Lakes, N.J.) in duplicate. All inoculated XLD plates were incubated at 37° C. for 24 hours. After incubation, plates were enumerated by counting black colonies, typical for Salmonella. The number of observed colonies was multiplied by the dilution factor to determine the total count in cfu/g. Representative isolates from day 0 were confirmed as Salmonella through serotyping to ensure the recovered counts represent the inoculated culture. Counts for the positive and negative controls were also recorded. In addition, on the first sample date that counts of zero were recovered, the subsample was enriched overnight to allow damaged Salmonella cells to be recovered. Enriched samples were spread plated to XLD, incubated at 37° C. for 24 hours, and growth of black colonies typical for Salmonella were noted (presence/absence result, not quantitative).
Based on the results from enumeration on day 1, 2, 7 and 14, the subsample was retained and enriched to allow damaged cells to be recovered. Enriched samples were spread plated to XLD.

[3] = after HMB is fed; cited from earlier work
[4] = healthy young or old adults; cited from earlier work

## CC(C)(O)CC(=O)O [HMB, β-hydroxy-β-methylbutyrate]
[1]; Study 1, both treatments (0.9 and 1.5%), day 1
  Salmonella enumeration (limit of detection): < 100 cfu/g
[1]; Study 1, both treatments (0.9 and 1.5%), day 2, 7 and 14
  Salmonella enumeration (limit of detection): < 10 cfu/g
[1]; Study 1, coating at 0.9 and 1.5%, 14-day test period
  Reduction of Salmonella artificially inoculated to the kibble: effective
[2]; day 1 and 2
  Salmonella growth in enriched samples: positive
[2]; day 7 and 14
  Salmonella growth in enriched samples: negative
[3]
  Loss of HMB to urine: 20-50%
[4]
  Side effects: no side effects

## CC(C)(O)CC(=O)O [HMBFA, β-hydroxy-β-methylbutyric acid]
[1]; Study 1, 0.9% (w:w) coating, Day 0
  Salmonella levels in coated kibbles: 5.59 ± 0.22 log10 CFU/g
[1]; Study 1, 0.9% (w:w) coating, Day 1, below limit of detection of 100 CFU/g
  Salmonella levels in coated kibbles: 0.00 ± 0^b log10 CFU/g
[1]; Study 1, 0.9% (w:w) coating, Day 2, below limit of detection of 10 CFU/g
  Salmonella levels in coated kibbles: 0.00 ± 0^c log10 CFU/g
[1]; Study 1, 0.9% (w:w) coating, Day 7, below limit of detection of 10 CFU/g
  Salmonella levels in coated kibbles: 0.00 ± 0^c log10 CFU/g
[1]; Study 1, 0.9% (w:w) coating, Day 14, below limit of detection of 10 CFU/g
  Salmonella levels in coated kibbles: 0.00 ± 0^c log10 CFU/g
[1]; Study 1, 0.9 and 1.5% (w:w)
  Time to elimination of Salmonella inoculated onto the kibbles: ≤ 24 h
[1]; Study 1, 1.5% (w:w) coating, Day 0
  Salmonella levels in coated kibbles: 4.88 ± 0.19 log10 CFU/g
[1]; Study 1, 1.5% (w:w) coating, Day 1, below limit of detection of 100 CFU/g
  Salmonella levels in coated kibbles: 0.00 ± 0^b log10 CFU/g
[1]; Study 1, 1.5% (w:w) coating, Day 2, below limit of detection of 10 CFU/g
  Salmonella levels in coated kibbles: 0.00 ± 0^c log10 CFU/g
[1]; Study 1, 1.5% (w:w) coating, Day 7, below limit of detection of 10 CFU/g
  Salmonella levels in coated kibbles: 0.00 ± 0^c log10 CFU/g
[1]; Study 1, 1.5% (w:w) coating, Day 14, below limit of detection of 10 CFU/g
  Salmonella levels in coated kibbles: 0.00 ± 0^c log10 CFU/g
[1]; Study 2, 0.1% (w:w) coating, Day 0
  Salmonella levels in coated kibbles: 5.61±0.19 log10 CFU/g
[1]; Study 2, 0.1% (w:w) coating, Day 1
  Salmonella levels in coated kibbles: 3.50 ± 0.12 log10 CFU/g
[1]; Study 2, 0.1% (w:w) coating, Day 2
  Salmonella levels in coated kibbles: 2.62 ± 0.26 log10 CFU/g
[1]; Study 2, 0.1% (w:w) coating, Day 7
  Salmonella levels in coated kibbles: 0.87 ± 0.47 log10 CFU/g
[1]; Study 2, 0.1% (w:w) coating, Day 14, below limit of detection of 10 CFU/g
  Salmonella levels in coated kibbles: 0.00 ± 0^b log10 CFU/g
[1]; Study 2, 0.3% (w:w) coating, Day 0
  Salmonella levels in coated kibbles: 5.62±0.06 log10 CFU/g
[1]; Study 2, 0.3% (w:w) coating, Day 1
  Salmonella levels in coated kibbles: 2.85 ± 0.16 log10 CFU/g
[1]; Study 2, 0.3% (w:w) coating, Day 2
  Salmonella levels in coated kibbles: 1.63 ± 0.32 log10 CFU/g
[1]; Study 2, 0.3% (w:w) coating, Day 7
  Salmonella levels in coated kibbles: 0.67 ± 0.33 log10 CFU/g
[1]; Study 2, 0.3% (w:w) coating, Day 14, below limit of detection of 10 CFU/g
  Salmonella levels in coated kibbles: 0.00 ± 0^b log10 CFU/g
[1]; Study 2, 0.5% (w:w) coating, Day 0
  Salmonella levels in coated kibbles: 5.60±0.26 log10 CFU/g
[1]; Study 2, 0.5% (w:w) coating, Day 1
  Salmonella levels in coated kibbles: 2.09 ± 0.28 log10 CFU/g
[1]; Study 2, 0.5% (w:w) coating, Day 2
  Salmonella levels in coated kibbles: 0.93 ± 0.52 log10 CFU/g
[1]; Study 2, 0.5% (w:w) coating, Day 7, below limit of detection of 10 CFU/g
  Salmonella levels in coated kibbles: 0.00 ± 0^b log10 CFU/g
[1]; Study 2, 0.5% (w:w) coating, Day 14, below limit of detection of 10 CFU/g
  Salmonella levels in coated kibbles: 0.00 ± 0^b log10 CFU/g
[1]; Study 2, 0.5% treatment, days 2, 7 and 14
  Salmonella enumeration (limit of detection): < 10 CFU/g
[1]; Study 2, by day 14
  Lowest coating level effective in eliminating the Salmonella inoculum: around 0.1 % (w:w)
[1]; Study 2, day 14 across all treatments
  Salmonella enumeration (limit of detection): < 10 CFU/g
[2]; Study 2, treatment levels below limit of detection on enumeration days 2, 7 and 14
  Salmonella growth in enriched subsamples: positive

## calcium β-hydroxy-β-methylbutyrate [CaHMB]
[1]; Study 3, 0.1% (w:w) powder coating, Day 0
  Salmonella levels in coated kibbles: 7.19±0.04 log10 CFU/g
[1]; Study 3, 0.1% (w:w) powder coating, Day 1
  Salmonella levels in coated kibbles: 7.11 ± 0.08 log10 CFU/g
[1]; Study 3, 0.1% (w:w) powder coating, Day 2
  Salmonella levels in coated kibbles: 6.84 ± 0.17 log10 CFU/g
[1]; Study 3, 0.1% (w:w) powder coating, Day 7
  Salmonella levels in coated kibbles: 3.18 ± 0.03^ log10 CFU/g
[1]; Study 3, 0.1% (w:w) powder coating, Day 14, below limit of detection of 10 CFU/g
  Salmonella levels in coated kibbles: 0 ± 0^b log10 CFU/g
[1]; Study 3, 0.3% (w:w) powder coating, Day 0
  Salmonella levels in coated kibbles: 7.17±0.07 log10 CFU/g
[1]; Study 3, 0.3% (w:w) powder coating, Day 1
  Salmonella levels in coated kibbles: 7.01 ± 0.07 log10 CFU/g
[1]; Study 3, 0.3% (w:w) powder coating, Day 2
  Salmonella levels in coated kibbles: 6.26 ± 0.03 log10 CFU/g
[1]; Study 3, 0.3% (w:w) powder coating, Day 7
  Salmonella levels in coated kibbles: 3.17 ± 0.04^ log10 CFU/g
[1]; Study 3, 0.3% (w:w) powder coating, Day 14, below limit of detection of 10 CFU/g
  Salmonella levels in coated kibbles: 0 ± 0^b log10 CFU/g
[1]; Study 3, 0.5% (w:w) powder coating, Day 0
  Salmonella levels in coated kibbles: 7.09±0.04 log10 CFU/g
[1]; Study 3, 0.5% (w:w) powder coating, Day 1
  Salmonella levels in coated kibbles: 6.15 ± 0.11 log10 CFU/g
[1]; Study 3, 0.5% (w:w) powder coating, Day 2
  Salmonella levels in coated kibbles: 5.87 ± 0.20 log10 CFU/g
[1]; Study 3, 0.5% (w:w) powder coating, Day 7, below limit of detection of 10 CFU/g
  Salmonella levels in coated kibbles: 0 ± 0^b log10 CFU/g
[1]; Study 3, 0.5% (w:w) powder coating, Day 14, below limit of detection of 10 CFU/g
  Salmonella levels in coated kibbles: 0 ± 0^b log10 CFU/g
[1]; Study 3, 0.5, 0.9 and 1.5% coated kibbles, day 7
  Salmonella enumeration counts: below the limit of detection
[1]; Study 3, 0.9% (w:w) powder coating, Day 0
  Salmonella levels in coated kibbles: 7.08±0.12 log10 CFU/g
[1]; Study 3, 0.9% (w:w) powder coating, Day 1
  Salmonella levels in coated kibbles: 6.27 ± 0.06 log10 CFU/g
[1]; Study 3, 0.9% (w:w) powder coating, Day 2
  Salmonella levels in coated kibbles: 6.03 ± 0.05 log10 CFU/g
[1]; Study 3, 0.9% (w:w) powder coating, Day 7, below limit of detection of 10 CFU/g
  Salmonella levels in coated kibbles: 0 ± 0^b log10 CFU/g
[1]; Study 3, 0.9% (w:w) powder coating, Day 14, below limit of detection of 10 CFU/g
  Salmonella levels in coated kibbles: 0 ± 0^b log10 CFU/g
[1]; Study 3, 1.5% (w:w) powder coating, Day 0
  Salmonella levels in coated kibbles: 7.04±0.13 log10 CFU/g
[1]; Study 3, 1.5% (w:w) powder coating, Day 1
  Salmonella levels in coated kibbles: 6.24 ± 0.07 log10 CFU/g
[1]; Study 3, 1.5% (w:w) powder coating, Day 2
  Salmonella levels in coated kibbles: 5.87 ± 0.09 log10 CFU/g
[1]; Study 3, 1.5% (w:w) powder coating, Day 7, below limit of detection of 10 CFU/g
  Salmonella levels in coated kibbles: 0 ± 0^b log10 CFU/g
[1]; Study 3, 1.5% (w:w) powder coating, Day 14, below limit of detection of 10 CFU/g
  Salmonella levels in coated kibbles: 0 ± 0^b log10 CFU/g
[1]; Study 3, all treated kibbles, day 14
  Salmonella enumeration counts (limit of detection): < 10 CFU/g
[1]; Study 3, powdered form, lower levels eliminating after 14 days, higher levels during first week
  Attenuation of Salmonella on kibbles: very effective
[2]; Study 3, days 7 and 14 for 0.5, 0.9, 1.5%, day 14 for 0.1 and 0.3%
  Salmonella growth in enriched subsamples: no Salmonella growth
